Experimental data published in patent publication US11691970B2, “Pyrazolopyridinone compounds” (Janssen Pharmaceutica NV, priority 2017, dated 2023).
Like-named read-outs stand apart in the source and are kept apart here.

Legend:
[1] = target: T1, human FGFR3 wild type enzyme (cytoplasmic domain) (Homo sapiens, UniProt P22607); assay: FGFR3 wild type mobility shift assay (enzymatic assay); format: biochemical; conditions: 75 μM ATP, 50 minutes at 30° C, Caliper EZ reader II
T1 construct: human FGFR3 wild type enzyme (cytoplasmic domain, from Carna Biosciences); purchased Carna Biosciences
T1 sequence (P22607 397-806 limits assumed): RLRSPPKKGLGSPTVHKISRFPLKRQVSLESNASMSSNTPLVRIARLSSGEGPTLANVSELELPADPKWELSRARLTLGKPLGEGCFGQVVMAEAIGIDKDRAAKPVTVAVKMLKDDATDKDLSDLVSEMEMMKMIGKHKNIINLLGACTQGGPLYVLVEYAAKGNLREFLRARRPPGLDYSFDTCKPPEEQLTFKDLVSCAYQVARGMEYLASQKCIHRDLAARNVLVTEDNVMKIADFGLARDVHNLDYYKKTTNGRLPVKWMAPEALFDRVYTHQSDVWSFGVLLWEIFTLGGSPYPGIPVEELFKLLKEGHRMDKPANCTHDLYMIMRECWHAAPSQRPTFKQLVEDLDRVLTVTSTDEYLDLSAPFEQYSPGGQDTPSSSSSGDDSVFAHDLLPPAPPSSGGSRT
Source text: FGFR3 Wild Type Mobility Shift Assay (Enzymatic Assay)

[2] = target: T2, human FGFR3 V555L enzyme (cytoplasmic domain carrying V555L mutation) (Homo sapiens, UniProt P22607, V555L); assay: FGFR3 V555L mobility shift assay (enzymatic assay); format: biochemical; conditions: 40 μM ATP, 50 minutes at 30° C, Caliper EZ reader II
T2 construct: human FGFR3 V555L enzyme (cytoplasmic domain carrying V555L mutation, from Carna Biosciences); purchased Carna Biosciences
T2 sequence (P22607 397-806 V555L limits assumed): as the sequence (P22607 397-806 limits assumed) above, with V159L counted along it
Source text: FGFR3 V555L Mobility Shift Assay (Enzymatic Assay)

[3] = system: NIH/3T3 cells transfected with control vector; assay: NIH/3T3 mock cell proliferation assay (counter assay, CellTiter Glo); format: cell-based; conditions: 72-hr incubation, top concentration 30 μM, counter assay for general toxicity, read-out: NIH/3T3 MOCK CTG (IC50)
Method: NIH/3T3 Mock Cell Proliferation Assay
In day 1, 90 μL of cell suspension (NIH/3T3 cells transfected with the same control vector as in the above two proliferation assays) (total 30,000 cells per well in growth medium (DMEM containing 1% Glutamax, 10% FBS and 1% Pen/Strep)) was seeded in a 96-well plate and then incubated overnight at 37° C. and 5% CO2. In day 2, 10 μL of growth medium containing 10-fold stock solution of testing compound was added into cell cultures (9 dose points with 3× serial dilution, starting with 30 μM, 0.3% DMSO final). After 72-hr incubation at 37° C. and 5% CO2, in day 5 a volume of 50 μL CellTiter Glo (CTG) reagent was added into cell-containing 96-well plate and the plate was incubated at room temperature for 10 minutes before RLUs (relative light unit) were measured on a microplate reader with luminescence detection module.

[4] = target: T3, NIH/3T3 cells overexpressing FGFR3 WT-TACC3 fusion protein (Homo sapiens, UniProt P22607); assay: NIH/3T3 FGFR3 WT-TACC3 cell proliferation assay (CellTiter Glo); format: cell-based; conditions: 72-hr incubation, top concentration 10 μM, read-out: NIH/3T3 FGFR3 WT-TACC3 CTG (IC50)
T3 construct: NIH/3T3 FGFR3 WT-TACC3 CTG (IC50); other: 72-hr incubation, CellTiter Glo, top concentration 10 μM; fused on or other part: Q9Y6A5 (Transforming acidic coiled-coil-containing protein 3)
T3 sequence (P22607 whole entry, change not shown, the tested form may be a part): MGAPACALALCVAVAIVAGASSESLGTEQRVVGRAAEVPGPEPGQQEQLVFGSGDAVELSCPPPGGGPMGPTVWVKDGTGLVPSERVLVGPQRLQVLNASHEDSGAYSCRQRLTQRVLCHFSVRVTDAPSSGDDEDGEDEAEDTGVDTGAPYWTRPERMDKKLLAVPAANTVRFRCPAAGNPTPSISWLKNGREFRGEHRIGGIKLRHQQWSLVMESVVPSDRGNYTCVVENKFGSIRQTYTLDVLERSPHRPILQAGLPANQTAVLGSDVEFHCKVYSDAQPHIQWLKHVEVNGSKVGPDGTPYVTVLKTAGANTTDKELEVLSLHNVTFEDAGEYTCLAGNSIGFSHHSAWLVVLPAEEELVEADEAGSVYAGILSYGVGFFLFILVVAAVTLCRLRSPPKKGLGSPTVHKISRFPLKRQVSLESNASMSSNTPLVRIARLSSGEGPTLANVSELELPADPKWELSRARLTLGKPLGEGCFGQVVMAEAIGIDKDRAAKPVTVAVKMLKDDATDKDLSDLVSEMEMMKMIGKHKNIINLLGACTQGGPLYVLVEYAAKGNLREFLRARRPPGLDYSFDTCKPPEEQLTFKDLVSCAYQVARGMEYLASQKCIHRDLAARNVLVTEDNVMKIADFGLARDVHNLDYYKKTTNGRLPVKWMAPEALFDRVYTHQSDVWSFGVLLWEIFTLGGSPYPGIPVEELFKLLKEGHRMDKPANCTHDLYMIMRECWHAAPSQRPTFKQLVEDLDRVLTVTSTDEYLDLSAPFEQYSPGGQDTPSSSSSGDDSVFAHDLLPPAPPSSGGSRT
Method: NIH/3T3 FGFR3 WT-TACC3 Cell Proliferation Assay
In day 1, 90 μL of cell suspension (NIH/3T3 cells overexpressing FGFR3 WT-TACC3 fusion protein) (total 30,000 cells per well in growth medium (DMEM containing 1% Glutamax, 10% FBS and 1% Pen/Strep)) was seeded in a 96-well plate and then incubated overnight at 37° C. and 5% CO2. […] After 72-hr incubation at 37° C. and 5% CO2, in day 5 a volume of 50 μL CellTiter Glo (CTG) reagent was added into cell-containing 96-well plate and the plate was incubated at room temperature for 10 minutes before RLUs (relative light unit) were measured on a microplate reader with luminescence detection module.

[5] = system: NIH/3T3 cells overexpressing FGFR3 WT-TACC3 fusion protein; assay: NIH/3T3 FGFR3 WT-TACC3 cellular phospho-ERK assay (in vitro PD assay); format: cell-based; conditions: Mus musculus, NIH3T3; 1-hr incubation, AlphaLISA SureFire Ultra p-ERK1/2 (Thr202/Tyr204); read-out: NIH/3T3 FGFR3 WT-TACC3 pERK (IC50)
Method: NIH/3T3 FGFR3 WT-TACC3 Cellular Phospho-ERK Assay (In Vitro PD Assay)
50 μL of cell suspension (NIH/3T3 cells overexpressing FGFR3 WT-TACC3 fusion protein) (total 10,000 cells per well in growth medium (DMEM containing 1% Glutamax, 10% FBS and 1% Pen/Strep)) was seeded in a 384-well plate. […] After 1-hr incubation at 37° C. and 5% CO2, the medium was depleted and AlphaLISA SureFire Ultra p-ERK1/2 (Thr202/Tyr204) Assay Kit (from PerkinElmer) was applied for phospho-ERK level detection according to the kit instructions.

| Structure (SMILES) | IC50 [1] [nM] | IC50 [2] [nM] | GI50 [4] [nM] | IC50 ([3]; Mus musculus, NIH3T3, 72 h) [nM] | IC50 [3] [nM] | IC50 [5] [nM] |
| --- | --- | --- | --- | --- | --- | --- |
| C[C@H](Nc1c(-c2nc3ccc(N4CCCCC4=O)c(F)c3[nH]2)c(=O)[nH]c2cn(C)nc12)c1ncccn1 [Compound 27, (S)-6-(7-fluoro-6-(2-oxopiperidin-1-yl)-1H-benzo[d]imidazol-2-yl)-2-methyl-7-((1-(pyrimidin-2-yl)ethyl)amino)-2H-pyrazolo[4,3-b]pyridin-5(4H)-one] | 0.61 |  | 99.9 | 1370 |  |  |
| CCn1cc2[nH]c(=O)c(-c3nc4cnc(N5CCOCC5)cc4[nH]3)c(N[C@@H](C)c3ncccn3)c2n1 [Compound 43, (S)-2-ethyl-6-(6-morpholino-1H-imidazo[4,5-c]pyridin-2-yl)-7-((1-(pyrimidin-2-yl)ethyl)-amino)-2H-pyrazolo[4,3-b]pyridin-5(4H)-one] | 1.04 |  | 12.6 | 415 |  |  |
| CCn1cc2[nH]c(=O)c(-c3nc4cnc(N5CCOCC5)cc4[nH]3)c(N[C@@H](C)c3ccccn3)c2n1 [Compound 47, (S)-2-ethyl-6-(6-morpholino-1H-imidazo[4,5-c]pyridin-2-yl)-7-((1-(pyridin-2-yl)ethyl)-amino)-2,4-dihydro-5H-pyrazolo[4,3-b]pyridin-5-one] | 2.03 |  | 17.4 | 1040 |  |  |
| CCn1cc2[nH]c(=O)c(-c3nc4c(F)cc(N5CCN(C)CC5)cc4[nH]3)c(N[C@@H](C)c3ncccn3)c2n1 [Compound 48, (S)-2-ethyl-6-(4-fluoro-6-(4-methylpiperazin-1-yl)-1H-benzo[d]imidazol-2-yl)-7-((1-(pyrimidin-2-yl)ethyl)amino)-2H-pyrazolo[4,3-b]pyridin-5(4H)-one] | 0.738 |  | 9.04 | 352 |  |  |
| CCn1cc2[nH]c(=O)c(-c3nc4c(F)cc(N5CC(OC)C5)cc4[nH]3)c(N[C@@H](C)c3ncccn3)c2n1 [Compound 49, (S)-2-ethyl-6-(4-fluoro-6-(3-methoxyazetidin-1-yl)-1H-benzo[d]imidazol-2-yl)-7-((1-(pyrimidin-2-yl)ethyl)amino)-2H-pyrazolo[4,3-b]pyridin-5(4H)-one] | 2.51 |  | 28.1 | 460 |  |  |
| COc1cc2nc(-c3c(N[C@@H](C)c4ncccn4)c4nn(C)cc4[nH]c3=O)[nH]c2cc1N1CCOCC1 [Compound 52, (S)-6-(5-methoxy-6-morpholino-1H-benzo[d]imidazol-2-yl)-2-methyl-7-((1-(pyrimidin-2-yl)ethyl)amino)-2H-pyrazolo[4,3-b]pyridin-5(4H)-one] | 0.704 |  | 4.11 | 390 |  |  |

Further lines, with some results ahead:

| IC50 [1] [nM] | IC50 [2] [nM] | GI50 [4] [nM] | Structure (SMILES) | IC50 ([3]; Mus musculus, NIH3T3, 72 h) [nM] | IC50 [3] [nM] | IC50 [5] [nM] |
| --- | --- | --- | --- | --- | --- | --- |
| 23.7 | 50.8 | 5.57 | CC(Nc1c(-c2nc3ccc(N4CCOCC4)cc3[nH]2)c(=O)[nH]c2cn(C)nc12)c1cscn1 (single isomer, unassigned) [Compound 41, (S*)-2-methyl-6-(6-morpholino-1H-benzo[d]imidazol-2-yl)-7-((1-(thiazol-4-yl)ethyl)-amino)-2H-pyrazolo[4,3-b]pyridin-5(4H)-one] | 425 |  |  |
| 18.9 |  | 8.84 | CC(Nc1c(-c2nc3ccc(N4CCOCC4)cc3[nH]2)c(=O)[nH]c2cn(C)nc12)c1cscn1 (single isomer, unassigned) [Compound 42, (R*)-2-methyl-6-(6-morpholino-1H-benzo[d]imidazol-2-yl)-7-((1-(thiazol-4-yl)ethyl)-amino)-2H-pyrazolo[4,3-b]pyridin-5(4H)-one] |  | 305 | 2.73 |
| 17.5 |  | 258 | C[C@H](Nc1c(-c2nc3ccc(N4CCCCC4)cc3[nH]2)c(=O)[nH]c2cn(C)nc12)c1ccccn1 [Compound 33, (S)-2-methyl-6-(6-(piperidin-1-yl)-1H-benzo[d]imidazol-2-yl)-7-((1-(pyridin-2-yl)ethyl)-amino)-2H-pyrazolo[4,3-b]pyridin-5(4H)-one] | 6530 |  |  |
| 0.891 |  | 13.2 | CCn1cc2[nH]c(=O)c(-c3nc4ccc(N5CCOCC5)cc4[nH]3)c(N[C@@H](C)c3ncccn3)c2n1 [Compound 46, (S)-2-ethyl-6-(6-morpholino-1H-benzo[d]imidazol-2-yl)-7-((1-(pyrimidin-2-yl)ethyl)-amino)-2H-pyrazolo[4,3-b]pyridin-5(4H)-one] | 1070 |  |  |
